Data taken from patent publication US7098332B2, “5,8-Dihydro-6H-pyrido[2,3-d]pyrimidin-7-ones” (Hoffmann-La Roche Inc., priority 2002, dated 2006).

What was measured:
PDGFR = PDGFR kinase HTRF assay; assay type: biochemical; conditions: 2.3 μM ATP
Procedure: (§1) To determine inhibition of KDR, FGFR, EGFR, and PDGFR activity, kinase assays were conducted using an HTRF (Homogeneous Time Resolved Fluorescence) assay. This assay is described in A. J. Kolb et. al., Drug Discovery Today, 1998, 3(7), p 333.
(§2) Kinase activity assays were performed in 96-well polypropylene plates (Falcon) with a total volume of 90 μL in each well. Each well contained 1 μM KDR substrate (Biotin-EEEEYFELVAKKKK), 1 nM activated KDR, and a test compound with one of 8 assay concentrations ranging from 100 μM to […] (1:5 serial dilution). The kinase activity assay was done in the presence of 100 mM HEPES, pH 7.4, 1 mM DTT, 0.1 mM Na2VO4, 25 mM MgCl2, 50 mM NaCl (from KDR stock solution), 1% DMSO (from compound), 0.3 mM ATP (at Km concentration) and 0.02% BSA. The reaction was incubated at 37° C. for 30 minutes. To stop the KDR reaction, 72 μL of reaction mixture was transferred into a STOP plate containing 18 μL of revelation buffer (20 mM EDTA, 50 mM HEPES, pH 7.4, 0.02% BSA, 10 nM Eu-labelled anti-pY antibody (final conc. 2 nM), and 100 nM streptavidin (final conc. 20 nM)). After mixing, 35 μL of solution was transferred into duplicate wells of a 384-well black plate (Costar), and read at 615/665 nm on a Wallac Victor 5 reader.
(§3) The PDGFR kinase activity assay was performed with 1 μM substrate (Biotin-EEEEYFELV), 1.0 nM PDGFR, test compounds, 100 mM HEPES, pH 7.4, 1 mM DTT, 5 mM MgCl2, 2 mM MnCl2, 1% DMSO, 2.3 μM ATP (Km for PDGFR), 0.1 mM Na2VO4, and 0.02% BSA. The rest of the assay was performed in the same manner as the KDR assay.
(§4) Compound IC50 values were determined from duplicate sets of data, and calculated by using Excel and fitting data to equation Y=[(a−b)/{1+(X/c)^d]+b, where a and b are enzyme activity in the presence of no test inhibitor compound and an infinite amount of inhibitor test compound, respectively, c is the IC50 and d is the hill constant of the compound response. The IC50 value is the concentration of test compound that reduces by 50% the enzyme activity under the test conditions described.

[1] = test system: Human umbilical vein endothelial cells; test: VEGF-stimulated HUVEC proliferation assay (BrdU); assay type: cell-based; conditions: VEGF 20 ng per mL, BrdU labeling, read-out: HUVEC/VEFG IC50
Procedure: (§5) The antiproliferative activity of test-compounds of this invention in cell-based assays was evaluated by BrdU assay using the BrdU kit (Roche Biochemicals 1-647-229). Human umbilical vein endothelial cells (Clonetics CC-2519) were cultured in EGM-2 (Clonetics CC-3162) medium and seeded at 10000 cells per well in a volume of 200 μL of EGM-2 (Clonetics CC-3162) media in a 96-well flat bottom plates (Costar 3595) overnight. After 24 hours of growth at 37° C. with 5% CO2, the incubation media was removed slowly by aspiration and the content of each well was washed with 300 μL pre-warmed EBM-2 (Clonetics CC-3156) containing 50 μg per mL of gentamycin and 50 ng per mL of amphotercin-B (Clonetics CC-4083). […]
(§6) After 24 hour exposure to the test compounds, the cells were labeled with BrdU (Roche Biochemicals 1-647-229), by adding 20 μL per well of BrdU labeling reagent that has been diluted (1:100) in serum starvation medium. […] The plates were read at 450 nm with reference wavelength of 650 nm. The percent inhibition for each test compound was calculated by subtracting the absorbency of the blank (no cells) wells from all wells, then subtracting the division of the average absorbency of each test duplicate by the average of the controls from 1. […] The IC50 is determined from the linear regression of a plot of the logarithm of the concentration versus percent inhibition.

EGFR = EGFR (Homo sapiens, UniProt P00533); test: EGFR kinase HTRF assay; assay type: biochemical; conditions: 0.5 μM ATP
EGFR, sequence (P00533 25-1210, species assumed): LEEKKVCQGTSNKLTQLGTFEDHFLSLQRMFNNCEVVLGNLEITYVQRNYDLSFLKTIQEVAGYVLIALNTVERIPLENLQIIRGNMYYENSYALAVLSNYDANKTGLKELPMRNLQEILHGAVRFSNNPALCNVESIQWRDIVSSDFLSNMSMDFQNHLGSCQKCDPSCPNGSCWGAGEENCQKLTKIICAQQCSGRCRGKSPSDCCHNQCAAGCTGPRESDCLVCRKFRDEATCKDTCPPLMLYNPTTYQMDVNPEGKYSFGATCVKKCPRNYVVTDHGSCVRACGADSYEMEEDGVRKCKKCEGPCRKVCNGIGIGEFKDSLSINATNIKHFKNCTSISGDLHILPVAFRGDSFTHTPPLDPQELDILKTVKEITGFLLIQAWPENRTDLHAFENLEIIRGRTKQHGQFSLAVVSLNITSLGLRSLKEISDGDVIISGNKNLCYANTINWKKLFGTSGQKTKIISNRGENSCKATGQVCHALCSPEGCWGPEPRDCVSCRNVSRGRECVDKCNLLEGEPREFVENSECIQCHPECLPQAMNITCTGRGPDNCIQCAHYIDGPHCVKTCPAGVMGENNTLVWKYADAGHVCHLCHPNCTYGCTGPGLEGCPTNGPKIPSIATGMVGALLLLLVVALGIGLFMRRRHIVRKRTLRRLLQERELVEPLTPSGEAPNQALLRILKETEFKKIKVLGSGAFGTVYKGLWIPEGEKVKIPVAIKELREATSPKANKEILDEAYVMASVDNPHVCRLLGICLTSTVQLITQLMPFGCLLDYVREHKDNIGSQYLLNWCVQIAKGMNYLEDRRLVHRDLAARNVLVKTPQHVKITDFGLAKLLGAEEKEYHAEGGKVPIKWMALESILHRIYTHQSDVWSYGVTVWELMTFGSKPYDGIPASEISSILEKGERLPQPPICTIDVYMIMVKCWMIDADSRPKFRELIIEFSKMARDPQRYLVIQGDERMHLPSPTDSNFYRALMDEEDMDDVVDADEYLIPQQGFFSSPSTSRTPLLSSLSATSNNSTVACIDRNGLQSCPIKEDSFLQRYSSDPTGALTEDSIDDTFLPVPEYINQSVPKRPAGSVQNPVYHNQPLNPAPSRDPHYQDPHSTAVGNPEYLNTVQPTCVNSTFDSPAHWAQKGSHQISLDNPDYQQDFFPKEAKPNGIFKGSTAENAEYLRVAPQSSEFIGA
Procedure: as §1, §2
as §3, with “EGFR” for “PDGFR”, “1.5” for “1.0”, “EGFR,” for “PDGFR,”, “0.5” for “2.3”, “EGFR),” for “PDGFR),”
as §4

FGFR = molecular target: T1, FGFR; test: FGFR kinase HTRF assay; assay type: biochemical; conditions: 10 μM ATP
T1 construct: fused on or other part: GST tag
Procedure: as §1, §2
FGFR, EGFR, and PDGFR activity assays were carried out as described above for the KDR activity assay with the following differences. GST-tagged FGFR enzyme was activated at room temperature for 1 hour in the following activation buffer: 100 mM HEPES, pH 7.4, 50 mM NaCl, 20 mM MgCl2, and 4 mM ATP. The kinase activity assay was performed with 1 μM substrate (Biotin-EEEEYFELV), 1.5 nM activated FGFR, and test compound in the presence of 100 mM HEPES, 1 mM DTT, 0.4 mM MgCl2, 0.4 mM MnCl2, 50 mM NaCl, 1% DMSO, 10 μM ATP (Km=8.5 μM for FGFR), 0.1 mM Na2VO4, and 0.02% BSA, in a total volume of 90 μL. The rest of the assay was performed in the same manner as KDR assay.
as §4

KDR = molecular target: T2, KDR (Homo sapiens, UniProt P35968); test: KDR kinase HTRF assay; assay type: biochemical; conditions: 0.3 mM ATP
T2 construct: EEE tag
T2 sequence (P35968 20-1356): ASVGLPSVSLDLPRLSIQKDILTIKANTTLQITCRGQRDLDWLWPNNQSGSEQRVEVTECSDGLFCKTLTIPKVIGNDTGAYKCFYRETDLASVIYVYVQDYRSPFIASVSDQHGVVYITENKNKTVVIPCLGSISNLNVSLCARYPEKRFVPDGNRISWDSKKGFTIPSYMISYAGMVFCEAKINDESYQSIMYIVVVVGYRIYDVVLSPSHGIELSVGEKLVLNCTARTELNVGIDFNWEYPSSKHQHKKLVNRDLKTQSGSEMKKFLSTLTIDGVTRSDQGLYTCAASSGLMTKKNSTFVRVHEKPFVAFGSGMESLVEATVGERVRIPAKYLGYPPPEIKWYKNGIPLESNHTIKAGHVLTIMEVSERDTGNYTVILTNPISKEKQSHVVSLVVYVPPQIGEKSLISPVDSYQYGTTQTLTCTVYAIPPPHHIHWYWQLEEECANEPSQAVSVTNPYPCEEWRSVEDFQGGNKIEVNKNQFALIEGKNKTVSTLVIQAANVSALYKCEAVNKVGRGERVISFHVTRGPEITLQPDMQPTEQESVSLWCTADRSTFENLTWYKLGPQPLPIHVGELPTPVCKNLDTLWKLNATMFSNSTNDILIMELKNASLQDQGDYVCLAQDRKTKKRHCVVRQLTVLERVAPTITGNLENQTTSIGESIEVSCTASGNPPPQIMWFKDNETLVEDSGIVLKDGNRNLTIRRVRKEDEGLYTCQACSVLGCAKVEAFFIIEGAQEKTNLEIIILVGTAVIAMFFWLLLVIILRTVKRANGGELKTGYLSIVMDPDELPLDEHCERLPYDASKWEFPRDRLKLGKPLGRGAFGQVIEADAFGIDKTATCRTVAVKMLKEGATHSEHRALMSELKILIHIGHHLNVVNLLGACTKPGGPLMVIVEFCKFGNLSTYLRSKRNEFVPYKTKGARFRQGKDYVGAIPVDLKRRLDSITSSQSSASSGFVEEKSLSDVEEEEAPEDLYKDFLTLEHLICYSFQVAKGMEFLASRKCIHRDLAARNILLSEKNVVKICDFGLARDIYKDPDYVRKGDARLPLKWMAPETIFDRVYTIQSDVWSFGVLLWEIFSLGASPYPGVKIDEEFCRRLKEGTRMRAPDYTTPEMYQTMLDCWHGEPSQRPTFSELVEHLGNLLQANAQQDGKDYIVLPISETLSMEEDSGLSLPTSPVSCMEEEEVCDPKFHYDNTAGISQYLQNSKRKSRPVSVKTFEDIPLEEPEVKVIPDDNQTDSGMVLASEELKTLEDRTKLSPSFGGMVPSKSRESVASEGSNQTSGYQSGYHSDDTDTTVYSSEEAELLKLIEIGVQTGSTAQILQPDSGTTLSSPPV
Procedure: as §1
Prior to kinase reaction, recombinant EEE-tagged KDR was activated in the presence of activation buffer (50 mM HEPES, pH 7.4, 1 mM DTT, 10% glycerol, 150 mM NaCl, 0.1 mM EDTA, 26 mM MgCl2, and 4 mM ATP). The enzyme was incubated at 4° C. for 1 hour.
as §2, §4

[2] = test system: Human umbilical vein endothelial cells; test: FGF-stimulated HUVEC proliferation assay (BrdU); assay type: cell-based; conditions: FGF 5 ng per mL, BrdU labeling, read-out: HUVEC/bFGFR IC50
Procedure: as §5, §6

Measured: IC50

O=C1C(c2c(Cl)cccc2Cl)Cc2cnc(Nc3ccccc3)nc2N1c1ccccc1 (stereo not drawn) [Example 2c, 6-(2,6-Dichloro-phenyl)-8-phenyl-2-phenylamino-5,8-dihydro-6H-pyrido[2,3-d]pyrimidin-7-one]
< 10 µM: all assays above
